Test results taken from patent US12685777B2, “Compositions, systems, and methods for modulating a target gene” (The Board of Trustees of the Leland Stanford Junior …, priority 2022, dated 2026).
Several values for one entry are separate records, joined by “and”; a condition that tells them apart may be missing. Equal entries are not always repeated. Where two headings read alike, the source gives them in different places.

What was measured:
[1] = Measurement of serum half life (pharmacokinetics) in mice; format: in vivo
Method: Tests were performed to determine whether JWZ-7-7 is capable of maintaining sufficiently high blood levels for killing SCLC and DLBCL. Formulations for either IV or IP administration were prepared as follows:
• Concentration: 0.6 mg/ml • Composition: 5/5/90 DMSO/Tween80/saline • Dose: 5 μl/g body weight • Appearance: clear solution Formulation #2—Used for IP Animals • Concentration: 1 mg/ml • Composition: 5/5/90 DMSO/Tween80/saline • Dose: 10 μl/g body weight • Appearance: clear solution
After either IV or IP injection of 3 mice each with either 3 mg/Kg (IV) or 10 mg/Kg(IP), the levels of JWZ-7-7 were measured at the indicated intervals. The calculated T1/2 is 4.47 hours for IV injection and 5.63 hours for […].

[2] = tested on: primary human fibroblasts; assay: Cell viability of primary human fibroblasts; format: cell-based; settings: 72 hours, read-out: EC50 of killing of fibroblasts
Method: Lymphoma and leukemia cells were cultured in RPMI-1640 (ATCC 30-2001)+10% FBS with antibiotics (100× PenStrep GIBCO #15140122). Primary human fibroblasts were obtained from ATCC (#CRL2522), cultured in DMEM+10% FBS with antibiotics and used at passages 3-5. Primary human tonsillar lymphocytes were a kind gift from M. M. Davis. Cells were routinely checked for mycoplasma and immediately checked upon suspicion. No cultures tested positive.
30,000 cells were plated in 100 μL media per well of a 96 well plate and treated with drug for indicated times and doses. A resazurin-based indicator of cell health (PrestoBlue, ThermoFisher #P50200) was added for 1.5 hours after which the fluorescence ratio at 560/590 nm was recorded. The background fluorescence was subtracted and the signal was normalized to DMSO-treated cells. EC50 measurements on cell lines were done with 4 biological repeats by separate cell passages maintained by 3 independent investigators. Fit of dose-response curves to data and statistical analysis was performed using drc package in R using the four-parameter log-logistic function.
After treatment, mouse tissue was harvested for RNA-seq and histology. […] Serum concentrations after 8 hours were -100 to 400-fold higher than therapeutic doses (FIG. 37, Panel C).

BRD4^BD1 = biological target: T1, BRD4^BD1 (Homo sapiens, UniProt O60885); assay: Isothermal calorimetry (ITC), binary titration; format: binding; settings: read-out: KD BRD4:TCIP1
T1 construct: 6xHis-TEV (N, cleaved yes)
From the text: The first one or two injections and outliers from instrument noise were routinely excluded. Data was fit to a one-site model using MicroCal LLC Origin software.
One reason for a broadening of the hook effect is the formation of cooperative protein-protein interactions induced by the drug, such as a molecular glue.

BCL6 mRNA = assay: RT-qPCR of BCL6 isoforms; format: cell-based, human; settings: 10 nM
Method: 12. RNA Extraction, qPCR, and Sequencing Library Preparation Cells were plated at 1 M/mL and harvested in TRIsure (Bioline #38033). RNA was extracted using Direct-zol RNA MicroPrep columns (Zymo #R^2062) treated with DNAseI. cDNA was prepared for RT-qPCR using the SensiFAST cDNA preparation kit according to manufacturer instructions (Bioline #65054). 1 μL of cDNA was used per RT-qPCR reaction prepared with SYBR Lo-ROX (Bioline #94020). For sequencing library preparation, polyA-containing transcripts were enriched for (NEB #E7490S) and prepared into paired-end libraries (NEB #E7760S). Libraries were sequenced on an Illumina NovaSeq (Novogene). 13. Western Blots
Thus, TCIPs can rewire a repressive negative feedback pathway into a positive feedback pathway, amplifying the potency of the molecule in killing cancer cells (model in FIG. 40, Panel D).

KARPAS422 = assay: Cell cycle and TUNEL analysis in KARPAS422 cells; format: cell-based, human
Method: Cells were incubated for 15 minutes at RT, then immediately measured on a BD Accuri. Gates were drawn based off single-stain and no-stain controls. For cell cycle and TUNEL analysis, cells plated at 1 M/mL were treated with drug for indicated timepoints and doses and pulsed with 10 μM ethynyl-EdU (Thermo #C10424) for 2 hours prior to harvesting on ice. 1 M cells were counted and washed in 2.5% FBS/PBS. Cells were resuspended at 10 M/mL and fixed in 4% PFA, washed, and permeabilized in 0.5% Triton-X100/PBS. […] Gates were drawn based off single-stain and no-stain controls and kept constant across conditions. Cancers can evade cell killing by many chemotherapeutics that function only during a specific stage of the cell cycle. […] The assay allows the analysis of the percentage of apoptotic cells in each cell population: G0/G1, G2/M, and S phase cells (FIG. 34). […] The finding implies that unlike many conventional chemotherapeutics, BRD4-BCL6-TCIPs could kill cancer cells without periods of potential insensitivity.

[3] = mouse, 3 mg/Kg IV, individual mice and Avg., 3 mg/kg
[4] = mouse, 3 mg/Kg IV, individual mice and Avg., 3 mg/kg, mean
[5] = mouse, 10 mg/Kg IP, individual mice and Avg., 10 mg/kg
[6] = mouse, 10 mg/Kg IP, individual mice and Avg., 10 mg/kg, mean

Question: What does the source list for `CNC(=O)COc1cc2cc(Nc3nc(N4CCC(C(=O)NCCCCCCCNC(=O)C[C@@H]5N=C(c6ccc(Cl)cc6)c6c(sc(C)c6C)-n6c(C)nnc65)CC4)ncc3Cl)cc(OC)c2n(C)c1=O` [JWZ-7-7, (S)-1-(5-chloro-4-((8-methoxy-1-methyl-3-(2-(methylamino)-2-oxoethoxy)-2-oxo-1,2-dihydroquinolin-6-yl)amino)pyrimidin-2-yl)-N-(7-(2-(4-(4-chlorophenyl)-2,3,9-trimethyl-6H-thieno[3,2-f][1,2,4]triazolo[4,3-a][1,4]diazepin-6-yl)acetamido)heptyl)piperidine-4-carboxamide]?
Answer: half-life ([1]; C57BL/6, mouse, serum, ip, 10 mg/kg, 10 mg/Kg IP, individual mice and Avg.): 5.63 h; Stability in serum ([1]; mouse): stable in serum; AUC% Extrap [1, 3]: 6.66% and 9.35% and 9.79%; AUCINF_obs [1, 3]: 797713 ng·min/mL and 444167 ng·min/mL and 988029 ng·min/mL; AUClast [1, 3]: 744580 min*ng/mL and 12.11 μM · hr and 402652 min*ng/mL and 6.55 μM · hr and 891309 min*ng/mL and 14.50 μM · hr; CI_obs [1, 3]: 3.8 mL/min/kg and 6.8 mL/min/kg and 3.0 mL/min/kg; Cmax [1, 3]: 31100 ng/mL and 14500 ng/mL and 36500 ng/mL; MRTINF_obs [1, 3]: 2.39 h and 2.14 h; T1/2 [1, 3]: 3.74 h and 3.93 h and 5.73 h; Vss_obs [1, 3]: 0.36 L/kg and 0.97 L/kg and 0.39 L/kg; AUC% Extrap [1, 4]: 8.60%; AUCINF_obs [1, 4]: 743303 ng·min/mL; AUClast [1, 4]: 679514 min*ng/mL and 11.06 μM · hr; CI_obs [1, 4]: 4.5 mL/min/kg; Cmax [1, 4]: 27367 ng/mL; MRTINF_obs [1, 4]: 2.04 h; Vss_obs [1, 4]: 0.57 L/kg; Cmax ([1]; mouse, 3 mg/Kg IV, individual mice and Avg., 3 mg/kg, mean, read-out: Cmax): 26.7 µM; Cmax ([1]; mouse, 3 mg/Kg IV, individual mice and Avg., 3 mg/kg, read-out: Cmax): 30.4 µM and 14.2 µM and 35.6 µM; AUC% Extrap [1, 5]: 42.22% and 42.00% and 38.85%; AUCINF_obs [1, 5]: 174254 ng·min/mL and 349182 ng·min/mL and 315593 ng·min/mL; AUClast [1, 5]: 100685 min*ng/mL and 1.64 μM · hr and 202511 min*ng/mL and 3.29 μM · hr and 192976 min*ng/mL and 3.14 μM · hr; Cl_obs [1, 5]: 57.4 mL/min/kg and 28.6 mL/min/kg and 31.7 mL/min/kg; Cmax [1, 5]: 389 ng/mL and 805 ng/mL and 885 ng/mL; T1/2 [1, 5]: 5.48 h and 6.32 h and 5.08 h; Tmax [1, 5]: 0.50 h and 1.00 h; AUC% Extrap [1, 6]: 41.03%; AUCINF_obs [1, 6]: 279676 ng·min/mL; AUClast [1, 6]: 165391 min*ng/mL and 2.69 μM · hr; Cl_obs [1, 6]: 39.2 mL/min/kg; Cmax [1, 6]: 693 ng/mL; Tmax [1, 6]: 0.53 h; Cmax ([1]; mouse, 10 mg/Kg IP, individual mice and Avg., 10 mg/kg, mean, read-out: Cmax): 0.68 µM; Cmax ([1]; mouse, 10 mg/Kg IP, individual mice and Avg., 10 mg/kg, read-out: Cmax): 0.38 µM and 0.79 µM and 0.86 µM; half-life ([1]; mouse, serum, iv, 3 mg/kg, 3 mg/Kg IV, individual mice and Avg.): 4.47 h; MRT inf ([1]; mouse, serum, iv, 3 mg/kg, 3 mg/Kg IV, individual mice and Avg., read-out: MRTINF_obs): 1.59 h; Tmax ([1]; mouse, serum, iv, 3 mg/kg, 3 mg/Kg IV, individual mice and Avg., read-out: Tmax): 0.08 h

Question: For `CNC(=O)COc1cc2cc(Nc3nc(N4CCC(C(=O)NCCCCCCCNC(=O)C[C@@H]5N=C(c6ccc(Cl)cc6)c6c(sc(C)c6C)-n6c(C)nnc65)CC4)ncc3Cl)cc(OC)c2n(C)c1=O` [TCIP1], which EC50 [2] is on record?
Answer: ~470 nM

Question: What about the Kd (BRD4^BD1) of the same compound?
Answer: 5080 nM

Question: And the “Time to upregulation of the long isoform of BCL6 mRNA” value (BCL6 mRNA)?
Answer: 1 to 2 h

Question: And the Cell cycle block (KARPAS422; KARPAS422)?
Answer: both a G1/S and G2/M block

Question: What about the “Cell cycle phases in which cell death occurs (TUNEL)” value (KARPAS422; KARPAS422, 100 nM) of the same compound?
Answer: all phases of the cell cycle
